Like-named read-outs stand apart in the source and are kept apart here.
Tests used:
[1] = tested on: TC-1 cells; format: in vivo, C57BL/6 mice; settings: for enhancement of the effect of CyaA-E7 by DOX: DOX day 24, intra-tumorally or intravenously, CyaA-E7 day 25; for effect on tumor growth of TLR ligand alone: TLR ligand alone without CyaA-E7, day 25; for survival percentage: TLR ligand given i.v. with 50 ug CyaA-E7 on day 25, pU and CpGs complexed with DOTAP, survival on day 100; for increase in tumor regression: TLR ligand given with CyaA-E7 on day 25, versus CyaA-E7 alone; for tumor growth after CTX alone: CTX 2.5 mg i.p. alone, day 24; for mice that totally eradicated their tumors: low dose CTX (2.5 mg i.p.) day 24, 24 h before 50 ug CyaA-E7
Procedure: (§1) Specific pathogen-free 5-week-old female C57BL/6 mice were purchased from Charles River (L'Arbresle, France) and were kept in the Pasteur Institute animal facilities under pathogen-free conditions with water and food ad libitum. C57BL/6-RAG1^−/− mice were obtained from the Jackson Laboratory, USA. Experiments involving animals were conducted according to the institutional guidelines for animal care.
TC-1 cells expressing HPV16-E6 and HPV16-E7 proteins derived from primary mouse lung epithelial cells were obtained from the American Type Culture Collection (LGC Promochem, Molsheim, France) (14). EL4-E7 cells, a mouse lymphoma expressing HPV16-E7 (15). Cells were maintained in RPMI 1640 with GlutaMAX supplemented with 10% heat-inactivated fetal calf serum, 100 units/ml penicillin, 100 μg/ml streptomycin, 0.4 mg/ml geneticin and 5×10^−5 mol/12-mercaptoethanol (Life Technologies, Cergy-Pontoise, France).
(§2) Tumor cells lines (5×10^5 TC-1 cells or 4×10^6 EL4-E7 cells) were inoculated into the shaved left back of C57BL/6 mice in 200 μl volume of PBS. Tumor size, presented as the average of two perpendicular diameters (millimeters), was measured at regular intervals.
CpG ODNs (Type A, CpG 2216: 5′-[…]-3′ (SEQ ID NO: 6); Type B, CpG 1826: 5′-[…]-3′ (SEQ ID NO: 7)) were synthesized by Proligo (Paris, France). Boldface nucleotides correspond to phosphorothioate backbone. Polyuridine (pU) was purchased from Sigma (Steinheim, Germany), R848 from PharmaTech (Shanghai, China) and polyinosinic-polycytidylic acid (PIC) from Invivogen (San Diego, Calif., USA). Thirty μg of CpG ODNs or pU were diluted in 50 μl of Optimen medium (Gibco, Grand Island, N.Y., USA) and mixed with 60 μg of DOTAP (Roche, Mannheim, Germany) diluted in 100 μl of Optimen. The rest of the reagents were diluted in PBS before injection. Cyclophosphamide (CTX) (Sigma, Steinheim, Germany) and doxorubicin (DOX) (Calbiochem, La Jolla, Calif., USA) were diluted respectively in PBS and in sterile water before injection. The different antigenic formulations and adjuvants were injected simultaneously except chemotherapeutic agents that were given 24 h before vaccine. Intravenous administrations were performed by retroorbital injection in a volume of 200 μl, intratumoral administrations were done by injection in a volume of 50 μl and subcutaneous administration were performed in 200 μl.
Tumor growth data were analyzed by non-linear mixed effect models using Monolix software (http://www.math.u-psud.fr/˜lavielle/monolix/). Mean diameters of tumors over time were fitted using the model described in (17) and treatments were compared using the Likelihood Ratio test. Kaplan-Meier plots were used to analyzed survival, and a log rank test was used to examine statistical significance of differences in the survival curves using Prism software (GraphPad Software, Inc. San Diego, USA). Data from in vivo CTL and tetramer staining were compared by ANOVA followed by Dunnett posttest. p values less than 0.05 were considered to be statistically significant.

[2] = tested on: TC-1 cells; settings: CTX 2.5 mg i.p. day 24; log-rank p=0.22 vs PBS
Procedure: as §1, §2

[3] = tested on: T regulatory cells, myeloid suppressor cells, tumor-specific CD8+ T cells and NK cells; test: Flow cytometric analysis of immune cells in spleen, draining lymph nodes and tumor after tritherapy; format: in vivo, C57BL/6 mice
Procedure: FIG. 9. Changes in immune cells after tritherapy on day 25. […] Groups of mice were sacrificed before treatment (day 0), 24 hour after CTX alone (day 1) or on days 4, 7 or 11 after tritherapy administration. Spleen, tumor draining lymph nodes and tumor were excised, ground to prepare the cell suspensions, stained and analyzed by flow cytometry. Pooled data of two experiments are shown (n=4-6 mice). Bars represent mean values and the error bars correspond to standard error of the mean. *<0.05**<0.01. A) Percentage of CD4^+ cells that express CD25 and FoxP3. B) Percentage of CD4^+ cells that are CD25^− and FoxP3^+. C) Percentage of CD4^+ cells that express FoxP3. D) Percentage of CD8^+ cells that are tetramer^+ and CD44^+. E) Percentage of CD11c^+ cells. F) Percentage of CD11b^+ cells. G) Percentage of GR1^+ cells. H) Percentage of CD11b^+GR1^+ positive cells.
FIG. 11. Phenotype of myeloid cells induced by tritherapy and by tumor growth. […] Tritherapy treated mice received on day 24, 2.5 mg CTX i.p and 24 h later, 50 μg CyaA-E7 and 30 μg CpG-B/DOTAP. PBS treated mice received 200 μl of PBS on day 25. […] Spleens were excised, ground to prepare the cell suspensions, stained and analyzed by flow cytometry. […]
FACScalibur (Becton Dickinson, Franklin Lakes, N.J., USA) was used for flow cytometry and events were analyzed with CELLQuest software (Becton Dickinson, Franklin Lakes, N.J., USA).

[4] = tested on: E749-57 peptide-pulsed splenocytes; test: In vivo killing assay (in vivo CTL); design: species or system C57BL/6 mice; settings: CTX 24 h before CyaA-E7, tumor-bearing mice day 25
Procedure: FIG. 8. Analysis of tumor specific immune response in control and tumor-bearing mice after different treatments. […] Twenty-five days later, control and tumor-bearing mice were injected with either 50 μg of control CyaA or of CyaA-E7, with PBS or with 30 μg of CpG-B or pU/DOTAP, 25 μg of PIC, 50 μg of R848, 2.5 mg of CTX (24 h before) or with CTX and CpG-B/DOTAP. Percentage of CD8^+ tetramer^+ cells in control (A) and in tumor-bearing mice (B). At day 7 after treatment, mice were sacrificed and the percentage of tetramer positive cells was analyzed by flow cytometry. In vivo CTL in control (C) and in tumor-bearing mice (D). […] Twenty-four hours later, spleens were removed and single-cell suspensions were analyzed by flow cytometry to determine the ratio of CFSE^high to CFSE^low cells. […] In vivo cytolytic activity was low but detected (E and F).
Naïve spleen cells were pulsed for 30 min with 9 μM E749-57 peptide at 37° C. […] Twenty-four hours later, spleens were removed and single-cells suspensions were analyzed by flow cytometry to determine the ratio of CFSE^high to CFSE^low cells. The percentage of specific lysis was calculated as follow: percent-specific lysis=100−(100×(% CFSE^highimmunized/% CFSE^low immunized)/(% CFSE^high control/% CFSE^low control)).

COc1cccc2c1C(=O)c1c(O)c3c(c(O)c1C2=O)C[C@@](O)(C(=O)CO)C[C@@H]3O[C@H]1C[C@H](N)[C@H](O)[C@H](C)O1 [DOX, Doxorubicin]
enhancement of the effect of CyaA-E7 by DOX [1]: did not enhance the effect of CyaA-E7
enhancement of the effect of CyaA-E7 by DOX ([1]; listed as doxorubicin): had no effect

5′-TCCATGACGTTCCTGACGTT-3′ [CpG-B]
effect on tumor growth of TLR ligand alone [1]: none of these TLR ligands administered alone had any effect on the tumor growth
survival percentage [1]: 50%

polyinosinic-polycytidylic acid [PIC]
effect on tumor growth of TLR ligand alone [1]: none of these TLR ligands administered alone had any effect on the tumor growth
survival percentage [1]: 41%
increase in tumor regression [1]: significant increase in tumor regression

polyuridine [pU]
survival percentage [1]: 41%
increase in tumor regression [1]: significant increase in tumor regression

O=P1(N(CCCl)CCCl)NCCCO1 (centres unmarked) [CTX, Cyclophosphamide]
tumor growth delay by CTX alone in RAG1-/- mice [2]: not observed
percentage of CD25+FoxP3+/CD4+ in tumor-infiltrated lymphocytes ([3]; four days after administration of cyclophosphamide, from around 50%): below 30%
lymphodepletion ([3]; spleen and lymph node, tumor-bearing mice, CTX 2.5 mg i.p. day 24): transient lymphodepletion in spleen and lymph node that reverted by day 7
immune response induced by CyaA-E7 [4]: did not enhance the immune response induced by CyaA-E7
antitumor efficacy of combined CTX and CyaA-E7 at higher CTX dose ([1]; 300 mg/kg versus 100 mg/kg CTX i.p. day 24, CyaA-E7 day 25, log-rank p=0.95): not improved
tumor growth after CTX alone [1]: significantly delayed tumor growth but this effect was transient and was followed by tumor relapse
tumor growth after CTX alone ([1]; listed as cyclophosphamide): could transiently control tumor growth but was not able to induce the complete eradication
tumor growth after CTX plus CyaA-E7 ([1]; low dose CTX 24 h before CyaA-E7, day 24/25): delayed growth of all tumors
mice that totally eradicated their tumors [1]: 58%
mice that totally eradicated their tumors ([1]; listed as cyclophosphamide): around 60%

5′-GGGGGACGATCGTCGGGGGG-3′ [CpG-A]
survival percentage [1]: 58%

— patent US9095537B2, “Therapy of cancer based on targeting adaptive, innate and/or regulatory component of the immune response” (priority 2006, dated 2015)
